The results in this text go back to patent publication US20170334899A1, “AMINO-SUBSTITUTED ISOTHIAZOLES” (Bayer Pharma Aktiengesellschaft, priority 2014, published 2017).

Assay [1] has as its target T1, catalytic domain of human Bub1 (amino acids 704-1085) (Homo sapiens, UniProt O43683).
T1 construct: catalytic domain of human Bub1 (amino acids 704-1085); His6 (N); made in house; host or cells: insect cells (Hi5)
In words: Bub1 kinase assay (TR-FRET). In kind it is biochemical. The settings on record: 10 μM ATP, avg, read-out: Bub1 avg (IC50 [mol/l]). The source says: Bub1-inhibitory activity of compounds of the present invention was quantified employing the Bub1 TR-FRET assay as described in the following paragraphs.
N-terminally His6-tagged recombinant catalytic domain of human Bub1 (amino acids 704-1085), expressed in insect cells (Hi5) and purified by Ni-NTA affinity chromatography and subsequent size exclusion chromatography, was used as enzyme. As substrate for the kinase reaction the biotinylated peptide biotin-Ahx-VLLPKKSFAEPG (C-terminus in amid form) was used which can be purchased e.g. form the company Biosyntan (Berlin, Germany).
For the assay 50 nl of a 100fold concentrated solution of the test compound in DMSO was pipetted into a black low volume 384well microtiter plate (Greiner Bio-One, Frickenhausen, Germany), 2 μl of a solution of Bub1 in aqueous assay buffer [50 mM Tris/HCl pH 7.5, 10 mM magnesium chloride (MgCl2), 200 mM potassium chloride (KCl), 1.0 mM dithiothreitol (DTT), 0.1 mM sodium ortho-vanadate, 1% (v/v) glycerol, 0.01% (w/v) bovine serum albumine (BSA), 0.005% (v/v) Trition X-100 (Sigma), 1× Complete EDTA-free protease inhibitor mixture (Roche)] were added and the mixture was incubated for 15 min at 22° C. to allow pre-binding of the test compounds to the enzyme before the start of the kinase reaction. Then the kinase reaction was started by the addition of 3 μl of a solution of adenosine-tri-phosphate (ATP, 16.7 μM=>final conc. in the 5 μl assay volume is 10 μM) and substrate (1.67 μM=>final conc. in the 5 μl assay volume is 1 μM) in assay buffer and the resulting mixture was incubated for a reaction time of 60 min at 22° C. The concentration of Bub1 was adjusted depending of the activity of the enzyme lot and was chosen appropriate to have the assay in the linear range, typical concentrations were in the range of 200 ng/ml. The reaction was stopped by the addition of 5 μl of a solution of TR-FRET detection reagents (0.2 μM streptavidine-XL665 [Cisbio Bioassays, Codolet, France] and 1 nM anti-phosho-Serine antibody [Merck Millipore, cat. #35-001] and 0.4 nM LANCE EU-W1024 labeled anti-mouse IgG antibody [Perkin-Elmer, product no. AD0077, as an alternative a Terbium-cryptate-labeled anti-mouse IgG antibody from Cisbio Bioassays can be used]) in an aqueous EDTA-solution (50 mM EDTA, 0.2% (w/v) bovine serum albumin in 100 mM HEPES pH 7.5).
The resulting mixture was incubated 1 h at 22° C. to allow the formation of complex between the phosphorylated biotinylated peptide and the detection reagents. Subsequently the amount of phosphorylated substrate was evaluated by measurement of the resonance energy transfer from the Eu-chelate to the streptavidine-XL. Therefore, the fluorescence emissions at 620 nm and 665 nm after excitation at 350 nm was measured in a TR-FRET reader, e.g. a Rubystar or Pherastar (both from BMG Labtechnologies, Offenburg, Germany) or a Viewlux (Perkin-Elmer). The ratio of the emissions at 665 nm and at […] was taken as the measure for the amount of phosphorylated substrate. The data were normalised (enzyme reaction without inhibitor=0% inhibition, all other assay components but no enzyme=100% inhibition).
In general terms: TR-FRET usually uses a lanthanide donor and a delayed reading to cut background.

Assay [2] deals with human cervical tumor cell line HeLa (ATCC CCL-2). In words: SAC-Formation - Paclitaxel-Induced Assay. The settings on record: Homo sapiens, HeLa, 24 h, HeLa cells, paclitaxel 0.05 μM, test range 0.005 μM-20 μM, read-out: IC50 [mol/l] SAC-Formation - Paclitaxel-Induced Assay. In kind it is cell-based. In outline:
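Read-out is high-content imaging of anti-phospho-H3 Ser10 (mitosis) and Hoechst 33342 (DNA, cell number), with decreased mitotic fraction marking checkpoint breakthrough. Compounds (0.005–20 μM) and 0.05 μM paclitaxel co-added to overnight-plated HeLa for 24 h at 37° C; four-parameter Hill fit.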

SMILES strings stand for the structures.

T1 sequence (O43683 704-1085): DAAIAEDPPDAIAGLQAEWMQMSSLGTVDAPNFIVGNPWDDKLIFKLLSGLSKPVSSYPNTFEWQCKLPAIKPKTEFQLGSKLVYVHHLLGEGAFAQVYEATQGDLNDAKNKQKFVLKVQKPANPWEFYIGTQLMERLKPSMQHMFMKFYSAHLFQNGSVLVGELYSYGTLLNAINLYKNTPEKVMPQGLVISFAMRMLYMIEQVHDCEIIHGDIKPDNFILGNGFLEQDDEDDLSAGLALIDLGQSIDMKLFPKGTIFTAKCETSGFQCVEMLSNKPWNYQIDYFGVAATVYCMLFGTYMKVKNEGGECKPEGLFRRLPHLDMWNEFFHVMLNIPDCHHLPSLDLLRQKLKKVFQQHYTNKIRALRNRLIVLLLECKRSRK

Regarding `CCCN1CC[C@@H](Oc2ccc(NC(=O)c3c(C)nsc3Nc3cnc(C(F)(F)F)cn3)cn2)[C@@H](F)C1` [Example 140, N-(6-{[(3S,4R)-3-fluoro-1-propylpiperidin-4-yl]oxy}pyridin-3-yl)-3-methyl-5-{[5-(trifluoromethyl)pyrazin-2-yl]amino}-1,2-thiazole-4-carboxamide], the IC50 in assay [1] is > 20 µM; in assay [2], 0.11 µM.
For `Cc1nsc(Nc2cnc(C(F)(F)F)cn2)c1C(=O)Nc1ccc(C(=O)NCCN2CCCC(F)(F)C2)cc1` [Example 153, N-(4-{[2-(3,3-difluoropiperidin-1-yl)ethyl]carbamoyl}phenyl)-3-methyl-5-{[5-(trifluoromethyl)pyrazin-2-yl]amino}-1,2-thiazole-4-carboxamide] the same measures were 14 µM and 0.37 µM.
For `Cc1nsc(Nc2cnc3ccccc3n2)c1C(=O)Nc1ccc(S(C)(=O)=O)cc1` [Example 115, 3-Methyl-N-[4-(methylsulfonyl)phenyl]-5-(quinoxalin-2-ylamino)-1,2-thiazole-4-carboxamide] the same measures were 8.9 µM and 3.7 µM.
Take `Cc1nsc(Nc2cnc(C(F)(F)F)cn2)c1C(=O)Nc1ccc(OC2CCN(CC(F)F)CC2)nc1` [Example 8, N-(6-{[1-(2,2-Difluoroethyl)piperidin-4-yl]oxy}pyridin-3-yl)-3-methyl-5-{[5-(trifluoromethyl)pyrazin-2-yl]amino}-1,2-thiazole-4-carboxamide]: the IC50 is ≥ 20 µM in assay [1] and 1.5 µM in assay [2].
In the case of `Cc1nsc(Nc2cnc3ccccc3n2)c1C(=O)Nc1cccc(C(=O)NCC(=O)O)c1` [Example 99, N-[3-({[3-Methyl-5-(quinoxalin-2-ylamino)-1,2-thiazol-4-yl]carbonyl}amino)benzoy]-glycine], the figures for the IC50 in assay [1] and in assay [2] were 2.7 µM and 20 µM, respectively.
For `Cc1nsc(Nc2cnc(C(F)(F)F)cn2)c1C(=O)Nc1ccc(O[C@H]2CCN(CCC(F)(F)F)C[C@H]2F)nc1` [Example 146, N-(6-{[(3R,4S)-3-fluoro-1-(3,3,3-trifluoropropyl)piperidin-4-yl]oxy}pyridin-3-yl)-3-methyl-5-{[5-(trifluoromethyl)pyrazin-2-yl]amino}-1,2-thiazole-4-carboxamide] the same measures were > 20 µM and 0.11 µM.
The matching figures for `Cc1nsc(Nc2cnc(C(F)(F)F)cn2)c1C(=O)Nc1ccc(C(=O)N2CCN(CC(F)F)CC2)cc1` [Example 154, N-(4-{[4-(2,2-difluoroethyl)piperazin-1-yl]carbonyl}phenyl)-3-methyl-5-{[5-(trifluoromethyl)pyrazin-2-yl]amino}-1,2-thiazole-4-carboxamide]: > 20 µM and 1.2 µM.
For `Cc1nsc(Nc2cnc(C(F)(F)F)cn2)c1C(=O)Nc1ccc(C(=O)O)cc1` [Example 97, 4-{[(3-Methyl-5-{[5-(trifluoromethyl)pyrazin-2-yl]amino}-1,2-thiazol-4-yl)carbony]-amino}benzoic acid] the same measures were 2.9 µM and 20 µM.
For the compound `Cc1nsc(Nc2cnc(C(F)(F)F)cn2)c1C(=O)Nc1ccc(OC2CCN(CCF)CC2)nc1` [Example 7, N-(6-{[1-(2-Fluoroethyl)piperidin-4-yl]oxy}pyridin-3-yl)-3-methyl-5-{[5-(trifluoromethyl)pyrazin-2-yl]amino}-1,2-thiazole-4-carboxamide], the IC50 in assay [1] was ≥ 20 µM; in assay [2], 0.77 µM.
For `Cc1nsc(Nc2cnc(C(F)(F)F)cn2)c1C(=O)Nc1ccc(O[C@@H]2CCN(CC(F)F)C[C@@H]2F)nc1` [Example 137, N-(6-{[(3S,4R)-1-(2,2-difluoroethyl)-3-fluoropiperidin-4-yl]oxy}pyridin-3-yl)-3-methyl-5-{[5-(trifluoromethyl)pyrazin-2-yl]amino}-1,2-thiazole-4-carboxamide] the same measures were > 20 µM and 0.032 µM.
For `Cc1nsc(Nc2cncc(C(F)(F)F)n2)c1C(=O)Nc1ccc(F)c(OC2CCN(C(=O)OC(C)(C)C)CC2)c1` [Example 168, tert-butyl 4-(2-fluoro-5-{[(3-methyl-5-{[6-(trifluoromethyl)pyrazin-2-yl]amino}-1,2-thiazol-4-yl)carbonyl]amino}phenoxy)piperidine-1-carboxylate] the same measures were > 20 µM and 0.075 µM.
For `Cc1nsc(Nc2cnc(C(F)(F)F)cn2)c1C(=O)Nc1ccc(O[C@@H]2CCN(CC(F)(F)F)C[C@@H]2F)nc1` [Example 138, N-(6-{[(3S,4R)-3-fluoro-1-(2,2,2-trifluoroethyl)piperidin-4-yl]oxy}pyridin-3-yl)-3-methyl-5-{[5-(trifluoromethyl)pyrazin-2-yl]amino}-1,2-thiazole-4-carboxamide] the same measures were > 20 µM and 0.17 µM.
Turning to `Cc1nsc(Nc2cnc(C(F)(F)F)cn2)c1C(=O)Nc1ccc(OC[C@@H]2CCN(CC(F)(F)F)C2)nc1` [Example 128, 3-Methyl-N-(6-{[(3R)-1-(2,2,2-trifluoroethyl)pyrrolidin-3-yl]methoxy}pyridin-3-yl)-5-{[5-(trifluoromethyl)pyrazin-2-yl]amino}-1,2-thiazole-4-carboxamide], the IC50 is > 20 µM in assay [1] and 0.07 µM in assay [2].
As to `Cc1nsc(Nc2cnc(C(F)(F)F)cn2)c1C(=O)Nc1ccc(OCC2CCN(C(=O)OC(C)(C)C)C2)nc1` (centres unmarked) [Example 109, tert-Butyl 3-{[(5-{[(3-methyl-5-{[5-(trifluoromethyl)pyrazin-2-yl]amino}-1,2-thiazol-4-yl)carbonyl]amino}pyridin-2-yl)oxy]methyl}pyrrolidine-1-carboxylate], the IC50 was ≥ 20 µM in assay [1] and 0.037 µM in assay [2].
The matching figures for `Cc1nsc(Nc2ccc(C#N)cn2)c1C(=O)Nc1ccc(C(=O)OC(C)(C)C)cc1` [Example 98, tert-Butyl 4-[({5-[(5-cyanopyridin-2-yl)amino]-3-methyl-1,2-thiazol-4-yl}carbonyl)-amino]benzoate]: ≥ 20 µM and 0.0079 µM.
With `Cc1nsc(Nc2cncc(C(F)(F)F)n2)c1C(=O)Nc1ccc(C(=O)NCCN2CCCC(F)C2)cc1` (centres unmarked) [Example 155, N-(4-{[2-(3-fluoropiperidin-1-yl)ethyl]carbamoyl}phenyl)-3-methyl-5-{[6-(trifluoromethyl)pyrazin-2-yl]amino}-1,2-thiazole-4-carboxamide], the IC50 in assay [1] is > 20 µM; in assay [2] it was 20 µM.
With `COc1ccc(NC(=O)c2c(C)nsc2Nc2ccc(C#N)cn2)c(N2CCOCC2)n1` [Example 173, 5-[(5-cyanopyridin-2-yl)amino]-N-[6-methoxy-2-(morpholin-4-yl)pyridin-3-yl]-3-methyl-1,2-thiazole-4-carboxamide], the IC50 in assay [1] is > 20 µM; in assay [2] it was 6.7 µM.
On to `Cc1nsc(Nc2cnc(C(F)(F)F)cn2)c1C(=O)Nc1ccc(C(=O)OC(C)(C)C)cc1` [Example 96, tert-Butyl 4-{[(3-methyl-5-{[5-(trifluoromethyl)pyrazin-2-yl]amino}-1,2-thiazol-4-yl)carbonyl]amino}benzoate], for which the figures for the IC50 in assay [1] and in assay [2] were ≥ 20 µM and 0.039 µM, respectively.
The matching figures for `Cc1nsc(Nc2cnc(C(F)(F)F)cn2)c1C(=O)Nc1ccc(OC2CCNCC2)nc1` [Example 6, 3-Methyl-N-[6-(piperidin-4-yloxy)pyridin-3-yl]-5-{[5-(trifluoromethyl)pyrazin-2-yl]amino}-1,2-thiazole-4-carboxamide]: ≥ 20 µM and 19 µM.
